According to patent publication US9409952B2, “Peptide-compound cyclization method” (Chugai Seiyaku Kabushiki Kaisha, priority 2011, dated 2016):
Like-named read-outs stand apart in the source and are kept apart here. Starred links: 1 amine or outer side, 2 acyl side, 3 side chain; linkers in the order of their positions; H or OH if unused. Positions of bridges follow the written chain, without caps; N, C: chain ends. Non-standard residues stand in square brackets, D forms with d. Residues, ends and D or L forms follow the SMILES beside them. *: point of attachment. Lys(Me2) = CN(C)CCCC[C@H](N)C(=O)O; NMeF = CN[C@@H](Cc1ccccc1)C(=O)O; NMeI = CC[C@H](C)[C@H](NC)C(=O)O; NMeβAla = CN(CCC(=O)[*:2])[*:1]; NMeL = CN[C@@H](CC(C)C)C(=O)O; NMeV = CN[C@H](C(=O)O)C(C)C; NMeS = CN[C@@H](CO)C(=O)O; NMeA = CN[C@@H](C)C(=O)O; Piperidide = C1CCN(*)CC1; dNMeA = CN[C@H](C)C(=O)O; β3hA = C[C@H](N)CC(=O)O; Sar = CNCC(=O)O

Test: PAMPA (parallel artificial membrane permeability assay)
Format: in vitro ADME
Settings: for Papp at 18 hours, 50 µM: PAMPA
Protocol: 4 μL of a phospholipid-organic solvent solution composed of 10% (w/v) of egg lecithin, 0.5% (w/v) of cholesterol and dodecane (all purchased from Fluka) was added to a Millipore 96-well membrane filter (hydrophobic PVDF (polyvinylidene difluoride), pore size 0.45 microm) (purchased from Millipore Japan) to make an artificial phospholipid membrane.
A DMSO solution containing the compound at a concentration of 10 mM was added in a percentage of 0.5% (v/v) to a 50 mM MOPSO buffer, pH 6.5, containing 5.0% (w/v) of glycocholic acid, and 330 μL of the mixture was added to a 96-well plate made of Teflon (donor plate). The above artificial phospholipid membrane plate was attached onto the donor plate, and 280 μL of a solution obtained by adding DMSO in a percentage of 0.5% (v/v) to a 50 mM MOPSO buffer, pH 6.5, containing 5.0% (w/w) of glycocholic acid was added onto the artificial phospholipid membrane (acceptor plate). These plates were allowed to stand at 37° C. for 18 hours, after which the concentrations of the compound in the solutions in the donor plate and the acceptor plate were measured by LC/MS or LC/UV, and the membrane permeation rate of the compound (Pe) was calculated by the following formulas (1) and (2), where t is the testing time, A is the membrane filter area, VD is the amount of the donor solution, VA is the amount of the acceptor solution, CD,t is the concentration of the compound in the donor solution at the time t, and CA,t is the concentration of the compound in the acceptor solution at the time t.

[1] = membrane permeation rate (Pe), 50 mM MOPSO buffer pH 6.5 with 5.0% glycocholic acid, 37° C., 18 hours, read-out: iPAMPA Pe

| Structure (SMILES) | Papp at 18 hours, 50 µM (pH 6.5) [×10⁻⁶ cm/s] | Papp at 18 hours, 50 µM [1] [×10⁻⁶ cm/s] | also measured |
| --- | --- | --- | --- |
| CC[C@H](C)[C@H]1C(=O)N[C@H](C(=O)N2CCCCC2)CC(=O)N[C@H](C)C(=O)N[C@@H]([C@@H](C)O)C(=O)N(C)[C@@H](C)C(=O)N(C)[C@@H](C(C)C)C(=O)N[C@@H](Cc2ccccc2)C(=O)N(C)CC(=O)N(C)[C@@H](CC(C)C)C(=O)N[C@@H](C)C(=O)N1C [DP-71] ([dA]T[NMeA][NMeV]F[Sar][NMeL]A[NMeI]D-Piperidide; lactam N-10) | 5.4 | – | – |
| CC[C@H](C)[C@@H]1NC(=O)[C@H](Cc2ccccc2)N(C)C(=O)[C@H]([C@@H](C)O)NC(=O)[C@@H](C)NC(=O)C[C@@H](C(=O)N(C)[C@@H](Cc2ccccc2)C(=O)N(C)[C@@H](Cc2ccccc2)C(=O)N[C@@H](C)C(=O)N2CCCCC2)NC(=O)[C@H](CC(C)C)N(C)C(=O)[C@H](CC(C)C)N(C)C(=O)[C@H](Cc2ccccc2)N(C)C(=O)[C@H](CC(C)C)N(C)C(=O)[C@H](C)N(C)C1=O [DP-289] ([dA]T[NMeF]I[NMeA][NMeL][NMeF][NMeL][NMeL]D[NMeF][NMeF]A-Piperidide; lactam N-10) | 0.14 | – | – |
| CC(C)C[C@@H]1NC(=O)[C@H](Cc2ccccc2)N(C)C(=O)[C@H](C)NC(=O)[C@H](C)N(C)C(=O)[C@H]([C@@H](C)O)NC(=O)[C@H](CC(C)C)N(C)C(=O)[C@H](C)N(C)C(=O)C[C@@H](C(=O)N2CCCCC2)NC(=O)[C@H](CC(C)C)N(C)C(=O)[C@H](Cc2ccccc2)N(C)C(=O)[C@H](CC(C)C)N(C)C1=O [DP-156] ([NMeA][NMeL]T[NMeA]A[NMeF]L[NMeL][NMeF][NMeL]D-Piperidide; lactam N-11) | – | 24 | – |
| CC(C)C[C@@H]1NC(=O)[C@H](CCCCN(C)C)NC(=O)[C@@H]2CCCN2C(=O)[C@H](C)NC(=O)[C@H](CC(C)C)N(C)C(=O)[C@H](Cc2ccccc2)NC(=O)[C@H](CC(C)C)N(C)C(=O)[C@H](CC(C)C)N(C)C(=O)[C@H](Cc2ccccc2)NC(=O)CN(C)C(=O)C[C@@H](C(=O)N(C)[C@@H](Cc2ccccc2)C(=O)N[C@@H](C)C(=O)N2CCCCC2)NC1=O [DP-593] ([Sar]F[NMeL][NMeL]F[NMeL]AP[Lys(Me2)]LD[NMeF]A-Piperidide; lactam N-11) | 1.1 | – | – |
| CC(C)C[C@H]1C(=O)N(C)[C@@H](C(C)C)C(=O)N[C@@H](Cc2ccccc2)C(=O)N[C@H](C(=O)N(C)[C@@H](Cc2ccccc2)C(=O)N(C)[C@@H](Cc2ccccc2)C(=O)N[C@@H](C)C(=O)N2CCCCC2)CC(=O)N[C@@H](C)C(=O)N[C@@H](C(C)C)C(=O)N(C)[C@@H](CC(C)C)C(=O)N[C@@H]([C@@H](C)O)C(=O)N(C)[C@@H](Cc2ccccc2)C(=O)NCC(=O)N1C [DP-287] (AV[NMeL]T[NMeF]G[NMeL][NMeV]FD[NMeF][NMeF]A-Piperidide; lactam N-10) | 1.4 | – | – |
| CC(C)C[C@@H]1NC(=O)[C@H](CCCCN(C)C)NC(=O)[C@H](Cc2ccccc2)N(C)C(=O)[C@H](CC(C)C)NC(=O)[C@H](CC(C)C)N(C)C(=O)[C@H](Cc2ccccc2)NC(=O)[C@H](CC(C)C)N(C)C(=O)[C@H](CC(C)C)N(C)C(=O)[C@H](Cc2ccccc2)NC(=O)CN(C)C(=O)C[C@@H](C(=O)N(C)[C@@H](Cc2ccccc2)C(=O)N[C@@H](C)C(=O)N2CCCCC2)NC1=O [DP-594] ([Sar]F[NMeL][NMeL]F[NMeL]L[NMeF][Lys(Me2)]LD[NMeF]A-Piperidide; lactam N-11) | – | 1.3 | – |
| CC[C@H](C)[C@@H]1NC(=O)[C@H](CC(C)C)N(C)C(=O)[C@H](C)N(C)C(=O)[C@H]([C@@H](C)O)NC(=O)[C@H](CC(C)C)N(C)C(=O)[C@H](Cc2ccccc2)N(C)C(=O)[C@@H](C(C)C)NC(=O)C[C@@H](C(=O)N(C)[C@@H](Cc2ccccc2)C(=O)N[C@@H](C)C(=O)N2CCCCC2)NC(=O)[C@H](C(C)C)N(C)C1=O [DP-308] ([dV][NMeF][NMeL]T[NMeA][NMeL]I[NMeV]D[NMeF]A-Piperidide; lactam N-9) | 27 | – | – |
| CC(C)C[C@@H]1NC(=O)[C@H](CC(C)C)N(C)C(=O)[C@H](C(C)C)NC(=O)C[C@H](C)NC(=O)CN(C)C(=O)[C@H](CC(C)C)NC(=O)[C@H](CO)N(C)C(=O)[C@H](CC(C)C)N(C)C(=O)[C@H](CC(C)C)N(C)C(=O)[C@H](CC(C)C)N(C)C(=O)[C@@H](CC(C)C)NC1=O [DP-640] (cyclo(L[Sar][β3hA]V[NMeL]L[dL][NMeL][NMeL][NMeL][NMeS])) | – | 50 | – |
| CC[C@H](C)[C@@H]1NC(=O)[C@H](C)N(C)C(=O)[C@H]([C@@H](C)O)NC(=O)[C@H](CC(C)C)N(C)C(=O)[C@H](Cc2ccccc2)N(C)C(=O)[C@H](C)N(C)C(=O)[C@@H](C(C)C)NC(=O)C[C@@H](C(=O)N(C)[C@@H](Cc2ccccc2)C(=O)N(C)[C@@H](Cc2ccccc2)C(=O)N[C@@H](C)C(=O)N2CCCCC2)NC(=O)[C@H](C(C)C)N(C)C(=O)[C@H](CC(C)C)N(C)C1=O [DP-510] ([dV][NMeA][NMeF][NMeL]T[NMeA]I[NMeL][NMeV]D[NMeF][NMeF]A-Piperidide; lactam N-10) | – | 2.2 | – |
| CC[C@H](C)[C@H]1C(=O)N[C@@H](C(C)C)C(=O)N(C)[C@@H](Cc2ccccc2)C(=O)N[C@@H](CC(C)C)C(=O)N(C)[C@@H](Cc2ccccc2)C(=O)N[C@H](C(=O)N(C)[C@@H](Cc2ccccc2)C(=O)N[C@@H](C)C(=O)N[C@H](C(=O)N[C@@H](Cc2ccccc2)C(=O)N2CCCCC2)[C@@H](C)O)CC(=O)N[C@@H](C)C(=O)N[C@@H](CC(C)C)C(=O)N1C [DP-572] (AL[NMeI]V[NMeF]L[NMeF]D[NMeF]ATF-Piperidide; lactam N-8) | – | – | iPAMPA Pe (membrane permeation rate (Pe), 50 mM MOPSO buffer pH 6.5 with 5.0% glycocholic acid, 37° C., 18 hours): 1.0E−07 |
| CC(C)C[C@@H]1NC(=O)[C@@H](C)N(C)C(=O)C[C@@H](C(=O)N(C)[C@@H](Cc2ccccc2)C(=O)N[C@@H](C)C(=O)N2CCCCC2)NC(=O)[C@H](Cc2ccccc2)N(C)C(=O)[C@H](CC(C)C)N(C)C(=O)[C@H](Cc2ccccc2)NC(=O)[C@H]([C@@H](C)O)NC(=O)[C@H](CC(C)C)N(C)C(=O)[C@H](CC(C)C)N(C)C1=O [DP-359] ([dNMeA]L[NMeL][NMeL]TF[NMeL][NMeF]D[NMeF]A-Piperidide; lactam N-9) | – | 43 | – |
| CC[C@H](C)[C@@H]1NC(=O)[C@H](CC(C)C)N(C)C(=O)[C@H](C(C)C)N(C)C(=O)[C@H](Cc2ccccc2)N(C)C(=O)[C@H](CC(C)C)NC(=O)[C@H](C)N(C)C(=O)[C@H](C)N(C)C(=O)[C@H]([C@@H](C)O)NC(=O)[C@H](Cc2ccccc2)N(C)C(=O)CN(C)C(=O)C[C@@H](C(=O)N(C)[C@@H](Cc2ccccc2)C(=O)N[C@@H](C)C(=O)N2CCCCC2)NC1=O [DP-186] ([Sar][NMeF]T[NMeA][NMeA]L[NMeF][NMeV][NMeL]ID[NMeF]A-Piperidide; lactam N-11) | – | 37 | – |
| CC(C)C[C@H]1C(=O)N(C)[C@@H](Cc2ccccc2)C(=O)N[C@@H]([C@@H](C)O)C(=O)N[C@@H](C)C(=O)N(C)[C@@H](C)C(=O)N[C@H](C(=O)N(C)[C@@H](Cc2ccccc2)C(=O)N[C@@H](C)C(=O)N2CCCCC2)CC(=O)N(C)CCC(=O)N(C)[C@@H](Cc2ccccc2)C(=O)N(C)[C@@H](C(C)C)C(=O)N(C)[C@@H](C)C(=O)N[C@@H](C)C(=O)N1C [DP-360] ([NMeβAla][NMeF][NMeV][NMeA]A[NMeL][NMeF]TA[NMeA]D[NMeF]A-Piperidide; lactam N-11) | – | 7.3 | – |
